# Data taken from patent US12611402B2, “Compounds and their use for the treatment of ALPHA1-antitrypsin deficiency” (CENTESSA PHARMACEUTICALS (UK) LIMITED, priority 2019, dated 2026).
# Assays:
# [1] = target: T1, human Z A1AT (Homo sapiens, UniProt P01009, E366K); experiment: A1AT cell secretion assay using HEK-Z cells (ELISA); format: cell-based; parameters: expressed in transfected cells; host or cells: HEK-Z cells (transfected HEK-EBNA); conditions: 48 h, supernatant ELISA
# Method: HEK-Z cells, a human embryonic kidney cell line stably transfected with the human Z A1AT gene, were plated into 96 well plates (3.0×10^5 cells/ml with 200 μl of media/well) overnight at 37° C. in a humidified atmosphere containing 5% CO2. Following incubation cells were washed with 200 μl serum-free media three times and media was replaced with treatments in quadruplicate using serum-free media containing vehicle, 10 μM suberanilohydroxamic acid (SAHA) or the compounds of Examples 1-18 (at concentrations of 10, 33, 100 and 333 nM) for 48 h in a 37° C. incubator in a final volume of 200 μl. At the end of the incubation step the supernatants were removed from the wells, centrifuged at 1000×g at 4° C. for 10 min and were assayed for human A1AT levels by ELISA (Human Serpin A1/α1-antitrypsin duo set ELISA, R& D Systems, DY1268) per manufacturer's instructions.
# (§1) Briefly, a 96 well plate was coated with human A1AT capture antibody overnight at room temperature (1:180 dilution from stock, 100 μl final volume/well). The capture antibody was then removed and wells washed three times with 300 μl wash buffer (0.05% Tween 20 in PBS) and then 200 μl reagent diluent (25% Tween 20 in PBS) was incubated in each well for 1 h at room temperature. Diluted samples, standards (125, 250, 500, 1000, 2000, 4000 and 8000 pg/ml A1AT) or blanks were then added to each well in duplicate and the plates were covered with a plate sealer and left at room temperature for 2 h. […] After which, 50 μl stop solution (2M H2SO4) was added and optical density (OD) of each well was read at 450 nm with 570 nm blank subtracted from each well using a microplate reader. A 4 parameter logistic curve was constructed using GraphPad Prism 7 and A1AT concentrations were determined in each sample by interpolation from a standard curve and multiplying by the appropriate dilution factor.
# The amount of human A1AT secreted from transfected HEK-EBNA cells into the media was measured by ELISA. […]
# [2] = target: T2, human Siiyama A1AT (Homo sapiens, UniProt P01009, S77F); experiment: A1AT cell secretion assay using HEK-Siiyama cells (ELISA); format: cell-based; conditions: 48 h; for secretion of Siiyama A1AT from HEK-Siiyama cells: 1 or 10 μM
# T2 construct: expressed in transfected cells; host or cells: HEK-Siiyama cells (transfected HEK-EBNA)
# Method: (§2) HEK-Siiyama cells, a human embryonic kidney cell line stably transfected with the human Siiyama A1AT gene, were plated into 96 well plates (3.0×10^5 cells/ml with 200 μl of media/well) overnight at 37° C. in a humidified atmosphere containing 5% CO2. Following incubation cells were washed with 200 μl serum-free media three times and media was replaced with serum-free media containing vehicle, 10 μM suberanilohydroxamic acid (SAHA) or a compound of Example 1 (at 1 and 10 μM) in replicates of eight for 48 h in a 37° C. incubator in a final volume of 200 μl. At the end of the incubation step the supernatants were removed from the wells, centrifuged at 1000×g at 4° C. for 10 min and were assayed for human A1AT levels by ELISA (Human Serpin A1/α1-antitrypsin duo set ELISA, R& D Systems, DY1268) per manufacturer's instructions.
# as §1
# The amount of human Siiyama A1AT secreted from transfected HEK-EBNA cells into the media was measured by ELISA. […]
# [3] = target: T3, human M A1AT (Homo sapiens, UniProt P01009); experiment: A1AT cell secretion assay using HEK-M cells (ELISA); format: cell-based; conditions: 10 μM, 48 h
# T3 construct: expressed in transfected cells; host or cells: HEK-M cells (transfected HEK-EBNA)
# Method: as §2, with “HEK-M” for “HEK-Siiyama”, “M A1AT,” for “the human Siiyama A1AT gene,”, “Examples 1-16” for “Example 1 (at 1 and 10 μM)”, “six” for “eight”, “A1/α1 antitrypsin” for “A1/α1-antitrypsin”
# Briefly, a 96 well plate was coated with human A1AT capture antibody overnight at room temperature (1:180 dilution from stock, 100 μl final volume/well). The capture antibody was then removed and wells washed three times with 300 μl wash buffer (0.05% Tween 20 in PBS) and then 200 μl reagent diluent ([…]) was incubated in each well for 1 h at room temperature. Diluted samples, standards (125, 250, 500, 1000, 2000, 4000 and 8000 pg/ml A1AT) or blanks were then added to each well in duplicate and the plates were covered with a plate sealer and left at room temperature for 2 h. At the end of the sample incubation step, samples were removed and all wells washed as previously and 100 μl detection antibody (1:180 dilution from stock) was added to each well and incubated for a further 2 h at room temperature. Following incubation with detection antibody, supernatant was removed and wells were washed as previously and 100 μl streptavidin-HRP solution (1:200 dilution from stock) was added to each well for 20 min in the dark. After which, 50 μl stop solution (2M H2SO4) was added and optical density (OD) of each well was read at 450 nm with 570 nm blank subtracted from each well using a microplate reader. A 4 parameter logistic curve was constructed using GraphPad Prism 7 and A1AT concentrations were determined in each sample by interpolation from a standard curve and multiplying by the appropriate dilution factor.
# The amount of human M A1AT secreted from transfected HEK-EBNA cells into the media was measured by ELISA. SAHA at 10 μM was used a positive control for all in vitro A1AT secretion experiments.
# [4] = target: T1, human Z A1AT; experiment: Circulating human Z A1AT levels in huZ mouse (plasma ELISA); format: in vivo; parameters: expressed in transfected cells; host or cells: transgenic huZ mouse (line Z11.03, C57Bl/6), expressed in liver, measured in plasma; conditions: 5, 15 or 50 mg/kg twice a day by oral gavage for 14 days; plasma days 12, 13 and 14 vs basal
# Source text: The huZ mouse (also referred to as the PiZZ mouse) is a transgenic mouse strain that contains multiple copies of the Z variant of the human A1AT gene, developed by two separate groups (Dycaico et al Science (1988) 242:1409-12) and Carlson et al J. Clin Invest (1989) 83:1183-90). HuZ mice are on a C57Bl/6 background and express the human Z A1AT protein in liver tissue. The mice used in this study are from the progeny of Carlson and colleagues (transgenic line Z11.03). […]
# HuZ mice (n=4/group; male or female) with basal human Z A1AT plasma levels of between 200-600 μg/ml were treated with either vehicle or the compounds of Examples 1 or 17 at 5, 15 or 50 mg/kg twice a day by oral gavage for 14 consecutive days. […] Human Z A1AT levels in mouse plasma samples were measured by ELISA (Human Serpin A1/α1 antitrypsin duo set ELISA, R& D Systems, DY1268) per manufacturer's instructions.
# Briefly, a 96 well plate was coated with human A1AT capture antibody overnight at room temperature (1:180 dilution from stock, 100 μl final volume/well). […] After which, 50 μl stop solution (2M H2SO4) was added and optical density (OD) of each well was read at 450 nm with 570 nm blank subtracted from each well using a microplate reader. […]
# T3 sequence (P01009 25-418): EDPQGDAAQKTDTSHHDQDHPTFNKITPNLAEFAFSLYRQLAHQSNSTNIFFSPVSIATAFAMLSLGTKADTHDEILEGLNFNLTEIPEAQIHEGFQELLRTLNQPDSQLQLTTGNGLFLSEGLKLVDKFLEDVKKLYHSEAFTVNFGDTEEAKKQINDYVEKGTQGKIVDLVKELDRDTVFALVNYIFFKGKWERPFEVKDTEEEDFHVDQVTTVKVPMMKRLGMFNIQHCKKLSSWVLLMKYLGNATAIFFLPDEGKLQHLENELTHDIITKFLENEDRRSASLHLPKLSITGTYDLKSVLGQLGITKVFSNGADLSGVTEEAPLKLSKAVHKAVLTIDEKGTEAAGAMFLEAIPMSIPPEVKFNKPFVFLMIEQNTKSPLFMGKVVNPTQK
# T1 sequence (P01009 25-418 E366K): as the sequence (P01009 25-418) above, with E342K counted along it
# T2 sequence (P01009 25-418 S77F): as the sequence (P01009 25-418) above, with S53F counted along it
SMILES,secretion of human M A1AT from HEK-M cells [3],Median A1AT increase over vehicle at 300 nM [1],also measured
"O=C(O)C1CCN(S(=O)(=O)c2ccc(C(F)(F)F)cc2)CC1 [Example 12, 1-((4-(Trifluoromethyl)phenyl)sulfonyl)piperidine-4-carboxylic add]",–,200,–
"O=C(O)C1CCN(S(=O)(=O)c2cccc3cccnc23)CC1 [Example 1, 1-(Quinolin-8-ylsulfonyl)piperidine-4-carboxylic acid]",did not lead to an increase,–,secretion of Siiyama A1AT from HEK-Siiyama cells [2]: did not stimulate secretion; secretion of human Z A1AT compared to baseline levels in huZ mice [4]: stimulated secretion
"O=C(O)[C@H]1CCN(S(=O)(=O)c2ccccc2C(F)(F)F)C1 [Example 15, (S)-1-((2-(Trinfluoromethyl)phenyl)sulfonyl)pyrrolidine-3-carboxylic acid]",–,230,–
"O=C(O)C1CCN(S(=O)(=O)c2cccc(Cl)c2Cl)CC1 [Example 4, 1-((2,3-Dichlorophenyl)sulfonyl)piperidine-4-carboxylic acid]",did not lead to an increase,–,–
"O=C(O)C1CCN(S(=O)(=O)c2cccc(Cl)c2)CC1 [Example 3, 1-((3-Chlorophenyl)sulfonyl)piperidine-4-carboxylic acid]",did not lead to an increase,–,–
"O=C(O)[C@H]1CCCN(S(=O)(=O)c2ccccc2C(F)(F)F)C1 [Example 17, (S)-1-((2-(Trinfluoromethyl)phenyl)sulfonyl)piperidine-3-carboxylic acid]",did not lead to an increase,310,secretion of Siiyama A1AT from HEK-Siiyama cells [2]: did not stimulate secretion; secretion of human Z A1AT compared to baseline levels in huZ mice [4]: stimulated secretion
"O=C(CCCCCCC(=O)Nc1ccccc1)NO [SAHA, suberanilohydroxamic acid, reference compound]",–,–,Siiyama A1AT secretion from HEK-Siiyama cells (positive control) ([2]; 10 μM): stimulated an increase

# Second part, led by results:
secretion of human M A1AT from HEK-M cells [3],SMILES,Median A1AT increase over vehicle at 300 nM [1],also measured
did not lead to an increase,"O=C(O)C1CCN(S(=O)(=O)c2ccccc2C(F)(F)F)CC1 [Example 10, 1-((2-(Trifluoromethyl)phenyl)sulfonyl)piperidine-4-carboxylic acid]",–,–
did not lead to an increase,"O=C(O)[C@@H]1CCCN(S(=O)(=O)c2ccccc2C(F)(F)F)C1 [Example 18, (R)-1-((2-(Trifluoromethyl)phenyl)sulfonyl)piperidine-3-carboxylic acid]",–,–
